Data reported in ChEMBL document CHEMBL1201862, “PubChem BioAssay data set” (2004).
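Interpolation was linear, between the two tested concentrations surrounding the appropriate level; five concentrations were tested over 48 hours in 96-well plates. Here, GI50 denotes the concentration required for 50% inhibition of growth.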 Calls of active or inactive are those of the source. Rule as the data show it: active = GI50 up to about 1.1 µM and inactive = higher.

How the values were obtained:
Assay in all cases: NCI anticancer screen, dose series, 48 h
A498 = system: A498
NCI-H226 = system: NCI-H226
SK-MEL-28 = system: SK-MEL-28
UACC-257 = system: UACC-257
A549 = system: A549
RXF 631 = system: RXF 631
SNB-19 = system: SNB-19
SF-539 = system: SF-539
SNB-78 = system: SNB-78
EKVX = system: EKVX
SR = system: SR
CAKI-1 = system: CAKI-1
HOP-18 = system: HOP-18
M14 = system: M14
KM12 = system: KM12
HT-29 = system: HT-29
NCI-H522 = system: NCI-H522
IGROV-1 = system: IGROV-1
SK-OV-3 = system: SK-OV-3
HOP-62 = system: HOP-62
TK-10 = system: TK-10
MOLT-4 = system: MOLT-4
SW-620 = system: SW-620
HCT-116 = system: HCT-116
SF-295 = system: SF-295
HOP-92 = system: HOP-92
RXF 393 = system: RXF 393
LOX IMVI = system: LOX IMVI
DMS-114 = system: DMS-114
K562 = system: K562
UACC-62 = system: UACC-62
786-0 = system: 786-0
OVCAR-8 = system: OVCAR-8
KM-20L2 = system: KM-20L2
LXFL 529 = system: LXFL 529
SN12C = system: SN12C
SF-268 = system: SF-268
CCRF-CEM = system: CCRF-CEM
COLO 205 = system: COLO 205
XF498 = system: XF498
Malme-3M = system: Malme-3M
NCI-H23 = system: NCI-H23
UO-31 = system: UO-31
OVCAR-3 = system: OVCAR-3
NCI-H460 = system: NCI-H460
ACHN = system: ACHN
OVCAR-4 = system: OVCAR-4
M19-MEL = system: M19-MEL
SK-MEL-5 = system: SK-MEL-5
U-251 = system: U-251
SNB-75 = system: SNB-75
HL-60 = system: HL-60
SK-MEL-2 = system: SK-MEL-2
DMS-273 = system: DMS-273
HCC 2998 = system: HCC 2998
HCT-15 = system: HCT-15
MDA-MB-231 = system: MDA-MB-231
PC-3 = system: PC-3
BT-549 = system: BT-549
RPMI-8226 = system: RPMI-8226

CC1CC[C@]2(C(=O)O)CCC3(C)C(=CC(=O)C4[C@@]5(C)CCC(=O)C(C)(C)C5CC[C@]43C)[C@@H]2[C@H]1C (some centres not stated)
GI50 (A498): 32.4 µM (inactive)
GI50 (NCI-H226): 25.2 µM (inactive)
GI50 (SK-MEL-28): 18 µM (inactive)
GI50 (UACC-257): 23.2 µM (inactive)
GI50 (A549): 24.5 µM (inactive)
GI50 (RXF 631): 27.3 µM (inactive)
GI50 (SNB-19): 40.5 µM (inactive)
GI50 (SF-539): 18.9 µM (inactive)
GI50 (SNB-78): 46.2 µM (inactive)
GI50 (EKVX): 31.6 µM (inactive)
GI50 (SR): 10.9 µM (inactive)
GI50 (CAKI-1): 39.8 µM (inactive)
GI50 (HOP-18): 31.9 µM (inactive)
GI50 (M14): 29.5 µM (inactive)
GI50 (KM12): 18.7 µM (inactive)
GI50 (HT-29): 28.4 µM (inactive)
GI50 (NCI-H522): 18.4 µM (inactive)
GI50 (IGROV-1): 26.9 µM (inactive)
GI50 (SK-OV-3): 34.5 µM (inactive)
GI50 (HOP-62): 22.1 µM (inactive)
GI50 (TK-10): 28.3 µM (inactive)
GI50 (MOLT-4): 11.5 µM (inactive)
GI50 (SW-620): 39.9 µM (inactive)
GI50 (HCT-116): 18.1 µM (inactive)
GI50 (SF-295): 31 µM (inactive)
GI50 (HOP-92): 25 µM (inactive)
GI50 (RXF 393): 17.8 µM (inactive)
GI50 (LOX IMVI): 15.9 µM (inactive)
GI50 (DMS-114): 19.7 µM (inactive)
GI50 (K562): 23.6 µM (inactive)
GI50 (UACC-62): 13.2 µM (inactive)
GI50 (786-0): 31.8 µM (inactive)
GI50 (OVCAR-8): 29.4 µM (inactive)
GI50 (KM-20L2): > 10 µM (inactive)
GI50 (LXFL 529): 18.6 µM (inactive)
GI50 (SN12C): 29.9 µM (inactive)
GI50 (SF-268): 54.3 µM (inactive)
GI50 (CCRF-CEM): 14.4 µM (inactive)
GI50 (COLO 205): 17.6 µM (inactive)
GI50 (XF498): 10 µM (inactive)
GI50 (Malme-3M): 28.8 µM (inactive)
GI50 (NCI-H23): 25.1 µM (inactive)
GI50 (UO-31): 12.5 µM (inactive)
GI50 (OVCAR-3): 17.4 µM (inactive)
GI50 (NCI-H460): 26.2 µM (inactive)
GI50 (ACHN): 21 µM (inactive)
GI50 (OVCAR-4): 35.2 µM (inactive)
GI50 (M19-MEL): 23.3 µM (inactive)
GI50 (SK-MEL-5): 20.7 µM (inactive)
GI50 (U-251): 27.4 µM (inactive)
GI50 (SNB-75): 35.5 µM (inactive)
GI50 (HL-60): 4.75 µM (inactive)

CC1CCC2C(C)C(=O)OC3OC4(C)CCC1C32OO4 (configuration not stated)
GI50 (A549): 89.1 µM (inactive)
GI50 (RXF 631): > 100 µM (inactive)
GI50 (SF-539): > 100 µM (inactive)
GI50 (SNB-78): > 100 µM (inactive)
GI50 (EKVX): > 97.1 µM (inactive)
GI50 (CAKI-1): > 100 µM (inactive)
GI50 (HOP-18): 61.8 µM (inactive)
GI50 (M14): > 100 µM (inactive)
GI50 (NCI-H522): 45.1 µM (inactive)
GI50 (IGROV-1): > 88.9 µM (inactive)
GI50 (SK-OV-3): > 100 µM (inactive)
GI50 (MOLT-4): 66.1 µM (inactive)
GI50 (HCT-116): 81.7 µM (inactive)
GI50 (SF-295): > 100 µM (inactive)
GI50 (RXF 393): 72.9 µM (inactive)
GI50 (LOX IMVI): 97.9 µM (inactive)
GI50 (DMS-114): > 80.4 µM (inactive)
GI50 (SK-MEL-2): > 100 µM (inactive)
GI50 (DMS-273): > 100 µM (inactive)
GI50 (K562): 33.1 µM (inactive)
GI50 (HCC 2998): > 100 µM (inactive)
GI50 (KM-20L2): > 100 µM (inactive)
GI50 (LXFL 529): 65.5 µM (inactive)
GI50 (SN12C): > 92.3 µM (inactive)
GI50 (SF-268): > 100 µM (inactive)
GI50 (CCRF-CEM): 83 µM (inactive)
GI50 (HCT-15): 98.4 µM
GI50 (XF498): > 100 µM (inactive)
GI50 (Malme-3M): > 100 µM (inactive)
GI50 (MDA-MB-231): 62.4 µM (inactive)
GI50 (PC-3): 66.8 µM (inactive)
GI50 (BT-549): 86.5 µM (inactive)
GI50 (UO-31): 82.2 µM (inactive)
GI50 (OVCAR-3): > 67.3 µM (inactive)
GI50 (RPMI-8226): 53.2 µM (inactive)
GI50 (OVCAR-4): > 72.8 µM (inactive)
GI50 (M19-MEL): > 100 µM (inactive)
GI50 (SK-MEL-5): > 96.2 µM (inactive)
GI50 (SNB-75): 61.7 µM (inactive)
GI50 (HL-60): 37.4 µM (inactive)
